Source: ChEMBL document CHEMBL1131972, “Investigation of the 4-O-alkylamine substituent of non-peptide quinolone GnRH receptor antagonists” (Bioorg Med Chem Lett, 1999)

What follows are compounds tested against T1, Gonadotropin-releasing hormone receptor (Rattus norvegicus, UniProt P30969) (assay: Binding affinity for Gonadotropin-releasing hormone receptor in rat pituitary membrane at 10 buserelin as radioligand).
T1 sequence (P30969 whole entry): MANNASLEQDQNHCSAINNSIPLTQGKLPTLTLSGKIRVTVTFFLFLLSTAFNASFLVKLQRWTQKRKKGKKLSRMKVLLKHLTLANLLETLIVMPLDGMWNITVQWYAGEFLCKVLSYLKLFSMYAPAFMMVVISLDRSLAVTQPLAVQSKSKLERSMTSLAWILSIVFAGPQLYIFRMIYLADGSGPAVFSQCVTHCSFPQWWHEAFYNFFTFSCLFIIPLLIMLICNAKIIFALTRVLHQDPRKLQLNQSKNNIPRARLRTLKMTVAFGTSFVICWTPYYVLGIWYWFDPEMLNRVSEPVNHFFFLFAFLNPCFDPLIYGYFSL
Format: cell membranes

Point of comparison: `Cc1cc(C)cc(-c2c(O)nc3cc(Cl)c([N+](=O)[O-])cc3c2OCCCC2CCCCN2)c1` (stereo unspecified), IC50 1.42 µM. Against it:
- Cc1cc(C)cc(-c2c(O)nc3cc(Cl)c([N+](=O)[O-])cc3c2OCC[C@@H]2CCCCN2)c1 — 140-fold lower, 0.01 µM
- Cc1cc(C)cc(-c2c(O)nc3cc(Cl)c([N+](=O)[O-])cc3c2OCC[C@H]2CCCN2)c1 — 14-fold lower, 0.1 µM
- Cc1cc(C)cc(-c2c(O)nc3cc(Cl)c([N+](=O)[O-])cc3c2OCC[C@@H]2CCCCN2C)c1 — 71-fold lower, 0.02 µM
- Cc1cc(C)cc(-c2c(O)nc3cc(Cl)c([N+](=O)[O-])cc3c2OCC[C@@H]2CCCN2)c1 — 95-fold lower, 0.015 µM
- Cc1cc(C)cc(-c2c(O)nc3cc(Cl)c([N+](=O)[O-])cc3c2OCC[C@H]2CCCCN2C)c1 — 17-fold lower, 0.085 µM
- Cc1cc(C)cc(-c2c(OCCC3CCCCCN3)c3cc([N+](=O)[O-])c(Cl)cc3[nH]c2=O)c1 (stereo unspecified) — 39-fold lower, 0.036 µM
- Cc1cc(C)cc(-c2c(O)nc3cc(Cl)c([N+](=O)[O-])cc3c2OCC[C@@H]2CCN2)c1 — 57-fold lower, 0.025 µM
- Cc1cc(C)cc(-c2c(OCC3CCCNC3)c3cc([N+](=O)[O-])c(Cl)cc3[nH]c2=O)c1 (stereo unspecified) — 39-fold lower, 0.036 µM
- Cc1cc(C)cc(-c2c(O)nc3cc(Cl)c([N+](=O)[O-])cc3c2OCC[C@H]2CCCCN2)c1 — 9.5-fold lower, 0.15 µM

The compounds below were run against T1, Gonadotropin-releasing hormone receptor (assay: Binding affinity for Gonadotropin-releasing hormone receptor in rat pituitary membrane at 10 buserelin as radioligand; NA is not active).
Format: cell membranes

In the case of `Cc1cc(C)cc(-c2c(O)nc3cc(Cl)c([N+](=O)[O-])cc3c2OCCc2ccccn2)c1`, the IC50 is reported as “Not Active”.
